“And” between values parts separate entries of the source, which are not always exact repeats. Equal entries are not always repeated. Toxic doses and inconclusive results are not listed. Rule for the calls: active = survival T/C of 150% or more; inactive = T/C below 125% in these data.
Test system: P388 leukemia ip, CD2F1 mice, survival T/C
Test: NCI In Vivo Anticancer Drug Screen. Data for tumor model P388 Leukemia (intraperitoneal) in CD2F1 (CDF1) mice
Details: endpoint: median survival time, higher = longer survival
Outline: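 Mice carrying the transplanted tumor received test compound or vehicle. Survival was recorded in each group, and the value is the treated-group measurement divided by that of the vehicle-treated control group.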

[1] = dose: 50.0 mg/kg/injection, schedule: Q01DX005 (ip), vehicle: Klucel (hydroxypropylcellulose) (HPC)
[2] = dose: 100.0 mg/kg/injection, schedule: Q01DX005 (ip), vehicle: Klucel (hydroxypropylcellulose) (HPC)
[3] = dose: 12.5 mg/kg/injection, schedule: Q01DX005 (ip), vehicle: Klucel (hydroxypropylcellulose) (HPC)
[4] = dose: 25.0 mg/kg/injection, schedule: Q01DX005 (ip), vehicle: Klucel (hydroxypropylcellulose) (HPC)
[5] = dose: 20.0 mg/kg/injection, schedule: Q01DX009 (ip), vehicle: saline
[6] = dose: 25.0 mg/kg/injection, schedule: Q01DX009 (ip), vehicle: Klucel (hydroxypropylcellulose) (HPC)
[7] = dose: 50.0 mg/kg/injection, schedule: Q01DX009 (ip), vehicle: Klucel (hydroxypropylcellulose) (HPC)
[8] = dose: 100.0 mg/kg/injection, schedule: Q01DX009 (ip), vehicle: Klucel (hydroxypropylcellulose) (HPC)
[9] = dose: 60.0 mg/kg/injection, schedule: Q01DX005 (ip), vehicle: saline with Tween-80

Measured: T/C

CC(C)(C)/C=C/N1CCN=N1
inactive: dose: 12.5 mg/kg/injection, schedule: Q01DX005 (ip), vehicle: saline with Tween-80 100 % of control | dose: 25.0 mg/kg/injection, schedule: Q01DX005 (ip), vehicle: saline with Tween-80 104 % of control | dose: 50.0 mg/kg/injection, schedule: Q01DX005 (ip), vehicle: saline with Tween-80 102 % of control and 109 % of control

CC(C)C1[NH][Sn]2([NH]C(C(C)C)C(=O)[O]2)[O]C1=O (stereo not drawn)
inactive: [1] 97 % of control | [2] 106 % of control

C/C(=N\NC(=S)N1CCCCCC1)c1cc2ccccc2cn1
inactive: dose: 3.12 mg/kg/injection, schedule: Q01DX005 (ip), vehicle: distilled water + Tween-80 + alcohol 100 % of control | dose: 6.25 mg/kg/injection, schedule: Q01DX005 (ip), vehicle: Klucel (hydroxypropylcellulose) (HPC) 117 % of control | dose: 6.25 mg/kg/injection, schedule: Q01DX005 (ip), vehicle: distilled water + Tween-80 + alcohol 111 % of control | [3] 116 % of control | dose: 12.5 mg/kg/injection, schedule: Q01DX005 (ip), vehicle: distilled water + Tween-80 + alcohol 105 % of control | [4] 121 % of control | dose: 25.0 mg/kg/injection, schedule: Q01DX005 (ip), vehicle: distilled water + Tween-80 + alcohol 118 % of control

CCCCCCCCCCCCCCCc1cccc(OC)c1C(=O)OC
inactive: [5] 109 % of control | dose: 40.0 mg/kg/injection, schedule: Q01DX009 (ip), vehicle: saline 106 % of control | dose: 80.0 mg/kg/injection, schedule: Q01DX009 (ip), vehicle: saline 104 % of control

NC(=O)c1ccc[n+](CCC[n+]2cccc(C(N)=O)c2)c1
inactive: dose: 60.0 mg/kg/injection, schedule: Q01DX005 (ip), vehicle: saline 103 % of control | dose: 120.0 mg/kg/injection, schedule: Q01DX005 (ip), vehicle: saline 101 % of control | dose: 240.0 mg/kg/injection, schedule: Q01DX005 (ip), vehicle: saline 99 % of control

COc1cc2ccc(CCNCc3ccccc3)cc2cc1OC
inactive: dose: 12.5 mg/kg/injection, schedule: Q01DX009 (ip), vehicle: Klucel (hydroxypropylcellulose) (HPC) 95 % of control | [6] 94 % of control | [7] 95 % of control | [8] 90 % of control

CCOc1ccc(C(C)c2cc3c(cc2OC)OCO3)cc1 (stereo not drawn)
inactive: dose: 15.0 mg/kg/injection, schedule: Q01DX005 (ip), vehicle: distilled water + Tween-80 102 % of control | dose: 25.0 mg/kg/injection, schedule: Q01DX005 (ip), vehicle: distilled water + Tween-80 100 % of control and 105 % of control (2×) | dose: 31.0 mg/kg/injection, schedule: Q01DX005 (ip), vehicle: distilled water + Tween-80 118 % of control | dose: 62.5 mg/kg/injection, schedule: Q01DX005 (ip), vehicle: distilled water + Tween-80 124 % of control | dose: 72.0 mg/kg/injection, schedule: Q01DX005 (ip), vehicle: distilled water + Tween-80 118 % of control and 119 % of control | dose: 120.0 mg/kg/injection, schedule: Q01DX005 (ip), vehicle: distilled water + Tween-80 112 % of control and 120 % of control
active: dose: 125.0 mg/kg/injection, schedule: Q01DX005 (ip), vehicle: distilled water + Tween-80 154 % of control

Cc1cccc(Nc2ncnc3c2c(=O)n(C)c(=O)n3C)c1
inactive: dose: 15.0 mg/kg/injection, schedule: Q01DX005 (ip), vehicle: saline with Tween-80 91 % of control | dose: 30.0 mg/kg/injection, schedule: Q01DX005 (ip), vehicle: saline with Tween-80 94 % of control | [9] 86 % of control

O=C1c2ccccc2C(=O)c2c(Nc3cc4c5c(ccc6c7ccc8c9c(cc(Nc%10cccc%11c%10C(=O)c%10ccccc%10C%11=O)c(c3c56)c97)-c3ccccc3C8=O)C(=O)c3ccccc3-4)cccc21
inactive: [3] 106 % of control | [4] 101 % of control | [1] 98 % of control and 101 % of control | [2] 96 % of control

Nc1cccnc1N
inactive: dose: 2.5 mg/kg/injection, schedule: Q01DX009 (ip), vehicle: saline 98 % of control | dose: 3.12 mg/kg/injection, schedule: Q01DX009 (ip), vehicle: saline 106 % of control | dose: 5.0 mg/kg/injection, schedule: Q01DX009 (ip), vehicle: saline 98 % of control | dose: 6.25 mg/kg/injection, schedule: Q01DX009 (ip), vehicle: saline 106 % of control | dose: 10.0 mg/kg/injection, schedule: Q01DX009 (ip), vehicle: saline 105 % of control | dose: 12.5 mg/kg/injection, schedule: Q01DX009 (ip), vehicle: saline 92 % of control and 93 % of control | [5] 101 % of control

CCCC(=O)N(C)O
inactive: dose: 100.0 mg/kg/injection, schedule: Q01DX005 (ip), vehicle: saline with Tween-80 108 % of control | dose: 200.0 mg/kg/injection, schedule: Q01DX005 (ip), vehicle: saline with Tween-80 103 % of control

CCN(CC)C1CS(=O)(=O)OC2=C1CCCc1ccccc12 (stereo not drawn)
inactive: [6] 102 % of control | [7] 104 % of control | [8] 95 % of control

CCC(C)([N+](=O)[O-])[N+](=O)[O-]
inactive: dose: 0.19 mg/kg/injection, schedule: Q01DX009 (ip), vehicle: Klucel (hydroxypropylcellulose) (HPC) 102 % of control | dose: 0.39 mg/kg/injection, schedule: Q01DX009 (ip), vehicle: Klucel (hydroxypropylcellulose) (HPC) 97 % of control | dose: 0.78 mg/kg/injection, schedule: Q01DX009 (ip), vehicle: Klucel (hydroxypropylcellulose) (HPC) 99 % of control and 96 % of control

Cc1ccc(S(=O)(=O)N2CCCN(S(=O)(=O)c3ccc(C)cc3)COC2)cc1
inactive: dose: 60.0 mg/kg/injection, schedule: Q01DX005 (ip), vehicle: Klucel (hydroxypropylcellulose) (HPC) 102 % of control | dose: 120.0 mg/kg/injection, schedule: Q01DX005 (ip), vehicle: Klucel (hydroxypropylcellulose) (HPC) 101 % of control | dose: 240.0 mg/kg/injection, schedule: Q01DX005 (ip), vehicle: Klucel (hydroxypropylcellulose) (HPC) 102 % of control

CC(=O)c1ccccc1N=Nc1ccc(N(CCCl)CCCl)cc1C
inactive: dose: 25.0 mg/kg/injection, schedule: Q01DX009 (ip), vehicle: saline with Tween-80 98 % of control | dose: 50.0 mg/kg/injection, schedule: Q01DX009 (ip), vehicle: saline with Tween-80 104 % of control and 108 % of control | dose: 100.0 mg/kg/injection, schedule: Q01DX009 (ip), vehicle: saline with Tween-80 96 % of control | dose: 200.0 mg/kg/injection, schedule: Q01DX009 (ip), vehicle: saline with Tween-80 123 % of control

CC1(C=O)CCCC2(C)[C@@H]1CCC13CC(CC[C@H]12)C(C(=O)O)C3 (stereo partly drawn)
inactive: dose: 3.25 mg/kg/injection, schedule: Q01DX005 (ip), vehicle: Klucel (hydroxypropylcellulose) (HPC) 86 % of control | dose: 6.5 mg/kg/injection, schedule: Q01DX005 (ip), vehicle: Klucel (hydroxypropylcellulose) (HPC) 90 % of control | dose: 13.0 mg/kg/injection, schedule: Q01DX005 (ip), vehicle: Klucel (hydroxypropylcellulose) (HPC) 87 % of control

[NH-]C(CO)C(=O)O.[NH-]C(CO)C(=O)O.[Pd+2] (stereo not drawn)
inactive: dose: 3.13 mg/kg/injection, schedule: Q04DX003 (ip), vehicle: water 103 % of control | dose: 6.25 mg/kg/injection, schedule: Q04DX003 (ip), vehicle: water 100 % of control | dose: 12.5 mg/kg/injection, schedule: Q01DX009 (ip), vehicle: acid diluted with saline 108 % of control | dose: 12.5 mg/kg/injection, schedule: Q01DX009 (ip), vehicle: water 104 % of control and 113 % of control | dose: 12.5 mg/kg/injection, schedule: Q04DX003 (ip), vehicle: water 97 % of control | dose: 25.0 mg/kg/injection, schedule: Q01DX009 (ip), vehicle: acid diluted with saline 109 % of control | dose: 25.0 mg/kg/injection, schedule: Q01DX009 (ip), vehicle: water 108 % of control and 109 % of control | dose: 25.0 mg/kg/injection, schedule: Q04DX003 (ip), vehicle: water 103 % of control | dose: 50.0 mg/kg/injection, schedule: Q01DX009 (ip), vehicle: acid diluted with saline 113 % of control | dose: 50.0 mg/kg/injection, schedule: Q01DX009 (ip), vehicle: water 104 % of control and 117 % of control | dose: 50.0 mg/kg/injection, schedule: Q04DX003 (ip), vehicle: water 117 % of control | dose: 100.0 mg/kg/injection, schedule: Q01DX009 (ip), vehicle: acid diluted with saline 104 % of control | dose: 100.0 mg/kg/injection, schedule: Q01DX009 (ip), vehicle: water 86 % of control | dose: 100.0 mg/kg/injection, schedule: Q04DX003 (ip), vehicle: water 106 % of control

O=c1c2cc3c(=O)n(CO)c(=O)c3cc2c(=O)n1CO
inactive: [9] 118 % of control | dose: 120.0 mg/kg/injection, schedule: Q01DX005 (ip), vehicle: saline with Tween-80 120 % of control | dose: 240.0 mg/kg/injection, schedule: Q01DX005 (ip), vehicle: saline with Tween-80 121 % of control

From PubChem BioAssay AID330 (DTP/NCI, 2004)
